This is an account of results in patent US7417156B2, “Orally active, antimalarial, anticancer, artemisinin-derived trioxane dimers” (Johns Hopkins University, priority 2002, dated 2008).

For series [1] the following is noted: rat liver microsomes; cited from earlier work. For orientation: Liver microsomes are vesicles of endoplasmic reticulum, rich in cytochrome P450 enzymes.
For series [2] the following is noted: in vivo; cited from earlier work.
Series [3] deals with chloroquine-sensitive P. falciparum (NF54). In words: Antimalarial activity in vitro, [3H]hypoxanthine incorporation. The format is cell-based. As to conditions: read-out: IC50.
A short description of series [4]: Stability in air (room temperature; accelerated aging at 60° C.). It counts as physicochemical. An excerpt:
The next step, shown in FIG. 2, in the production of the novel meso trioxane dimer 3 involves the substitution of the acetoxy group from the C-10 acetate 2 product to form the meso trioxane dimer 3 product. Inspiration for this bis-allylation of C-10 acetate 2 was based on the pioneering trioxane mono-allylations of Ziffer (Pu, Y. M.; Ziffer, H., Synthesis and Antimalarial Activities of 12β-Allyldeoxoartemisinin. J. Med. Chem. 1995, 38, 613-616) and O'Neill (O'Neill, et al., J. Med. Chem. 1999, 42, 5487-5493; and O'Neill, P. M., et al., J. Chem. Soc., Perkin Trans. 2001, 1, 2682-2689.) using allylsilane and based also on allylic bis-silane chemistry, see Rychnovsky, S. D., et. al., Tetrahedron Lett. 1999, 40, 41-44. The requisite allylic bis-silane is easily prepared in one step from the corresponding commercial allylic dichloride (Shown in FIG. 2); in the presence of fresh tin tetrachloride, the allylic bis-silane converts acetate 2 on gram scale into meso dimer 3, characterized by ^1H NMR spectroscopy as done before in structurally related trioxanes. This double substitution reaction undoubtedly proceeds sequentially via initial monoallylation, producing an intermediate C-10 allylic silane that then reacts with another molecule of trioxane acetate 2 to form the product dimer 3. […]

Consider `CCO[C@H]1O[C@@H]2O[C@@]3(C)CC[C@H]4[C@H](C)CC[C@@H]([C@H]1C)[C@@]24OO3` [arteether], for which the conversion into dihydroartemisinin result in series [1] was “rapidly converted”. With `C[C@H]1[C@@H](O)O[C@@H]2O[C@@]3(C)CC[C@H]4[C@H](C)CC[C@@H]1[C@@]24OO3` [Compound 31, dihydroartemisinin], the half-life in plasma result in series [2] is “less than two hours”. By IC50 is commonly meant the concentration that inhibits the measured activity by half. Consider `C=C(CC1OC2OC3(C)CCC4C(C)CCC(C1C)C24OO3)CC1OC2OC3(C)CCC4C(C)CCC(C1C)C24OO3` (stereo not shown) [Compound 3, trioxane isobutene dimer], for which the IC50 in series [3] was found to be 24 nM. For the same compound, the “stability in air and light in words” value in series [4] was “stable in air and light at room temperature for at least six months”.
